Molecular target: T1, rat NaP2b (SLC34A2) (Rattus norvegicus, UniProt Q9JJ09)
T1 construct: host or cells: HEK293
T1 sequence (Q9JJ09 1-695): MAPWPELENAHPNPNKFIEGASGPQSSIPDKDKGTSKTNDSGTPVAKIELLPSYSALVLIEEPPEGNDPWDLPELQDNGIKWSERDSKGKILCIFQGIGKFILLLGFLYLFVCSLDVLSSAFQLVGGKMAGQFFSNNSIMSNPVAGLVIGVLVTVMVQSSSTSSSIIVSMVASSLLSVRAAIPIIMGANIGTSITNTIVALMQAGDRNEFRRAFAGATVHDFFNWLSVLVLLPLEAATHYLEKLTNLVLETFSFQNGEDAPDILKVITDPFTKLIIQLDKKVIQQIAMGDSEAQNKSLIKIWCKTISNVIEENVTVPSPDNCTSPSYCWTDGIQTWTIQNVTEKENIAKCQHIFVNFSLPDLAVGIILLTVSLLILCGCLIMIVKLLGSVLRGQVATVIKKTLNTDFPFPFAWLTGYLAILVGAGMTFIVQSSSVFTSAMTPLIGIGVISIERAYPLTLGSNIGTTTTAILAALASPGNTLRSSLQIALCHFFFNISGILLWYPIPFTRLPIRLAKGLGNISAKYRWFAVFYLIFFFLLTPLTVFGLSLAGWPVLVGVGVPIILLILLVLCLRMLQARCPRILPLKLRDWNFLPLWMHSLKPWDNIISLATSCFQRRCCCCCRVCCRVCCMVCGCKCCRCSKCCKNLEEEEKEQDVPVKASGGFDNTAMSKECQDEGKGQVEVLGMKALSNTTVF
Test: Inhibition of NaP2b-mediated Pi (33P) uptake in transfected HEK293 cells, rat NaP2b
Assay type: cell-based
Settings: 33P Pi uptake, 0.1 mM phosphate, value given as pIC50 range
In short: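 HEK293 cells were transiently transfected with NaP2b cDNA using Lipofectamine and grown near confluence. Compounds were tested at twelve concentrations from 0.1 nM to 30 uM in duplicate, and 33P-phosphate uptake was counted by scintillation after lysis. Results are expressed as pIC50.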

Row | IC50 [µM] | pIC50 range for rat Nap2b | SMILES
1 | 10 to 31.6 |  | CCN(CC)CCN(C)Cc1cccc(C(=O)Nc2ccc(Cl)cc2-c2cc(NCc3cccc(C(F)(F)F)c3)ncn2)c1 [Example 68, N-(4-Chloro-2-(6-((3-(trifluoromethyl)benzyl)amino)pyrimidin-4-yl)phenyl)-3-(((2-(diethylamino)ethyl)(methyl)amino)methyl)benzamide]
2 | 1 to 7.94 |  | O=C(O)CCSCc1cccc(C(=O)Nc2ccc(N3CCCCC3)cc2-c2cc(C(=O)NCc3cccc(OC(F)(F)F)c3)ccn2)c1 [Example 1.45]
3 | 1 to 7.94 |  | CCN(CC)c1ccc(NC(=O)c2cccc(C(=O)N(C)CCN3CCCN(C(=O)CCOCCOCCOCCOCCOCCOCCOCCOC)CC3)c2)c(-c2cc(C(=O)N[C@H]3CCCc4ccccc43)ccn2)c1 [Example 197, (S)—N^1-(2-(4-(2,5,8,11,14,17,20,23-octaoxahexacosan-26-oyl)-1,4-diazepan-1-yl)ethyl)-N^3-(4-(diethylamino)-2-(4-((1,2,3,4-tetrahydronaphthalen-1-yl)carbamoyl)pyridin-2-yl)phenyl)-N^1-methylisophthalamide]
4 | 10 to 31.6 |  | O=C(O)CCSCc1cccc(C(=O)Nc2ccc(N3CCCCC3)cc2-c2cc(C(=O)NCc3cccc(-n4cccn4)c3)ccn2)c1 [Example 1.21]
5 | < 1 |  | CCN(CC)c1ccc(NC(=O)c2cccc(CCCOCCOCCOCCOCCNC(=O)c3cc[nH]n3)c2)c(-c2cc(C(=O)N[C@H]3CCCc4ccccc43)ccn2)c1 [Example 323]
6 | 1 to 7.94 |  | CN(CCN1CCOCC1)C(=O)c1cccc(C(=O)Nc2ccc(N3CCCCC3)cc2-c2cc(SCc3ccccc3)ccn2)c1 [Example 109]
7 | 1 to 7.94 |  | COCCNC(=O)CCN(C)C(=O)c1cccc(C(=O)Nc2ccc(N3CCCCC3)cc2-c2cc(C(=O)NCc3cccc(C(F)(F)F)c3)ccn2)c1 [Example 4.2, N1-(2-(4-((3-(Trifluoromethyl)benzyl)carbamoyl)pyridin-2-yl)-4-(piperidin-1-yl)phenyl)-N3-(3-(2-methoxyethylamino)-3-oxopropyl)-N3-methylisophthalamide]
8 | 10 to 31.6 |  | CCN(CC)CCN(C)C(=O)c1cccc(C(=O)Nc2ccc(N3CCCCC3)cc2-c2cc(C(=O)NCc3cccc(C(F)(F)F)c3)ccn2)c1 [Example 4.1, N1-(2-(Diethylamino)ethyl)-N1-methyl-N3-(4-(piperidin-1-yl)-2-(4-((3-(trifluoromethyl)benzyl)carbamoyl)pyridin-2-yl)phenyl)isophthalamide]
9 | 1 to 7.94 |  | O=C(O)CCSCc1cccc(C(=O)Nc2ccc(N3CCCCC3)cc2-c2cc(C(=O)NCc3cccc(C(F)(F)F)c3)cc(Cl)n2)c1 [Example 86]
10 | 10 to 31.6 |  | O=C(NCc1cccc(C(F)(F)F)c1)c1ccnc(-c2cc(N3CCCCC3)ccc2NC(=O)c2cccc(C(=O)N3CCC(N4CCOCC4)CC3)c2)c1 [Example 4.23]
11 | 10 to 31.6 |  | Cc1cccc(CNc2cc(-c3cc(N4CCCCC4)ccc3NC(=O)c3cccc(CSCCC(=O)O)c3)ncn2)c1 [Example 3.2, 3-((3-((4-(Piperidin-1-yl)-2-(6-((3-methylbenzyl)amino)pyrimidin-4-yl)phenyl)carbamoyl)benzyl)thio)propanoic acid]
12 | 1 to 7.94 |  | O=C(O)c1cccc(Cn2ccnc2-c2cccc(C(=O)Nc3ccc(N4CCCCC4)cc3-c3cc(C(=O)NCc4cccc(C(F)(F)F)c4)ccn3)c2)c1 [Example 184, 3-((2-(3-(4-(piperidin-1-yl)-2-(4-(3-(trifluoromethyl)benzylcarbamoyl)pyridin-2-yl)phenylcarbamoyl)phenyl)-1H-imidazol-1-yl)methyl)benzoic acid]
13 | 1 to 7.94 |  | CCN(CC)c1ccc(NC(=O)c2cccc(C(=O)N(C)CCN(C)CCOCCOCCOCCNC(=O)c3cccnc3)c2)c(-c2cc(C(=O)N[C@H]3CCCc4ccccc43)ccn2)c1 [Example 342, (S)—N^1-(4-(Diethylamino)-2-(4-(1,2,3,4-tetrahydronaphthalen-1-ylcarbamoyl)pyridin-2-yl)phenyl)-N^3-methyl-N^3-(14-methyl-1-oxo-1-(pyridin-3-yl)-5,8,11-trioxa-2,14-diazahexadecan-16-yl)isophthalamide]
14 | 1 to 7.94 |  | CN(CCN1CCN(S(C)(=O)=O)CC1)C(=O)c1cccc(C(=O)Nc2ccc(N3CCCCC3)cc2-c2cc(C(=O)NCc3cccc(C(F)(F)F)c3)ccn2)c1 [Example 83, N1-methyl-N1-(2-(4-(methylsulfonyl)piperazin-1-yl)ethyl)-N3-(4-(piperidin-1-yl)-2-(4-(3-(trifluoromethyl)benzylcarbamoyl)pyridin-2-yl)phenyl)isophthalamide]
15 | 1 to 7.94 |  | COCCNC(=O)N1CCN(CCN(C)Cc2cccc(C(=O)Nc3ccc(N4CCCCC4)cc3-c3cc(C(=O)NCc4cccc(C(F)(F)F)c4)ccn3)n2)CC1 [Example 63, N-(2-Methoxyethyl)-4-(2-(methyl((6-((4-(piperidin-1-yl)-2-(4-((3-(trifluoromethyl)benzyl)carbamoyl)pyridin-2-yl)phenyl)carbamoyl)pyridin-2-yl)methyl)amino)ethyl)piperazine-1-carboxamide]
16 | 1 to 7.94 |  | CN(CCN1CCC[C@H]1C(=O)N(C)CCOCCOCCOCCC(=O)OC(C)(C)C)C(=O)c1cccc(C(=O)Nc2ccc(N3CCCCC3)cc2-c2cc(C(=O)N[C@H]3CCCc4ccccc43)ccn2)c1 [Example 190, tert-Butyl 2-methyl-1-((S)-1-(2-(N-methyl-3-((4-(piperidin-1-yl)-2-(4-(((S)-1,2,3,4-tetrahydronaphthalen-1-yl)carbamoyl)pyridin-2-yl)phenyl)carbamoyl)benzamido)ethyl)pyrrolidin-2-yl)-1-oxo-5,8,11-trioxa-2-azatetradecan-14-oate]
17 |  | 5.1-6.0 | CCN(CC)c1ccc(NC(=O)c2cccc(C(=O)N(C)CCN(C)CCOCCOCCOCCNC(=O)C(C)(C)C)c2)c(-c2cc(C(=O)NCc3cccc(C(F)(F)F)c3)ccn2)c1 [Example 346, N2-(4-(diethylamino)-2-(4-(3-(trifluoromethyl)benzylcarbamoyl)pyridin-2-yl)phenyl)-N^3-methyl-N^3-(3,17,17-trimethyl-16-oxo-6,9,12-trioxa-3,15-diazaoctadecyl)isophthalamide]
18 | 1 to 7.94 |  | CCN(CC)c1ccc(NC(=O)c2cccc(C(=O)N(C)CCN(C)CCOCCOCCOCCNC(=O)C3CCOCC3)c2)c(-c2cc(C(=O)N[C@H]3CCCc4ccccc43)ccn2)c1 [Example 343, (S)—N^1-(4-(Diethylamino)-2-(4-(1,2,3,4-tetrahydronaphthalen-1-ylcarbamoyl)pyridin-2-yl)phenyl)-N^3-methyl-N^3-(14-methyl-1-oxo-1-(tetrahydro-2H-pyran-4-yl)-5,8,11-trioxa-2,14-diazahexadecan-16-yl)isophthalamide]
19 | 1 to 7.94 |  | CN(Cc1cccnc1)C(=O)c1cccc(C(=O)Nc2ccc(N3CCCCC3)cc2-c2cc(C(=O)NCc3cccc(C(F)(F)F)c3)ccn2)c1 [Example 4.27]
20 | 1 to 7.94 |  | CN(Cc1ncc[nH]1)C(=O)c1cccc(C(=O)Nc2ccc(N3CCCCC3)cc2-c2cc(C(=O)NCc3cccc(C(F)(F)F)c3)ccn2)c1 [Example 4.24]
21 | 1 to 7.94 |  | CN(CCN1CCOCC1)C(=O)c1cccc(SCc2cccc(C(=O)Nc3ccc(N4CCCCC4)cc3-c3cc(C(=O)NCc4cccc(C(F)(F)F)c4)ccn3)c2)c1 [Example 10.7]
22 | 10 to 31.6 |  | CN(Cc1cccc(C(=O)Nc2ccc(N3CCCCC3)cc2-c2cc(C(=O)NCc3cccc(C(F)(F)F)c3)ccn2)c1)C(=O)CN1CCOCC1 [Example 42, 2-(2-(3-((N-Methyl-2-morpholinoacetamido)methyl)benzamido)-5-(piperidin-1-yl)phenyl)-N-(3-(trifluoromethyl)benzyl)isonicotinamide]
